Measurements taken from patent US9351978B2, “Neurogenesis screening method and uses thereof” (Mead Johnson Nutrition Company, priority 2012, dated 2016).

Experiments:
hADSCs = experiment: neurogenesis of hADSCs, neuronal morphology under phase contrast microscopy; format: cell-based, human
Description: hADSCs were purchased from Invitrogen, also known as Life Technologies, of Carlsbad, Calif., U.S.A., and were cultured as near confluent monolayers in 100 mm culture plates within a maintenance media consisting of Complete MesenPro RS medium with growth supplement and L-glutamine obtained from Invitrogen®. The process of culturing, passage, and seeding the hADSCs is described below.
The subculture of hADSCs was performed when cell culture reached confluence. To passage hADSCs, the following procedure is used: i) aspirate the Complete MesenPRO RS medium from the cells; ii) rinse the surface area of the cell layer with Dulbecco's phosphate buffered saline (DBPS) buffer by adding the DPBS to the side of the vessel opposite the attached cell layer and rocking the vessel back and forth several times; iii) remove the DPBS by aspiration and discard; iv) detach the cells by adding a sufficient volume of pre-warmed trypsin-EDTA solution without phenol red to cover the cell layer; v) incubate at 37° C. for approximately 7 minutes; vi) observe the cells under a microscope to determine if additional incubation is needed; vii) add 3 mL of the maintenance media to the plate, mix the cell suspension, add the suspension to a 15 mL centrifuge tube and centrifuge at 210 g for 5 minutes; viii) determine the total number of cells and percent viability using a hemacytometer; ix) add Complete MesenPRO RS medium to each vessel so that the final culture volume is 0.2 mL-0.5 mL per cm^2; x) seed the cells by adding the appropriate volume of cells to each vessel and incubate at 37° C., 5% CO2 and 90% humidity; and xi) three or four days after seeding, completely remove the medium and replace with an equal volume of Complete MesenPRO RS medium.
Before seeding the passaged hADSCs on fresh culture plates, the surfaces of the culture ware are washed with sterile DPBS solution three times, followed by multiple rinses with sterile water. The first layer of coating is poly-L-ornithine. […]

hNSCs = experiment: neurogenesis of hNSCs, morphological changes under inverted fluorescent microscopy; format: cell-based, human; settings: 72 hours
Description: Briefly, hNSCs were purchased from Millipore, Bellerica, Mass., U.S.A., with genetic modification to constitutively express green fluorescent protein (“GFP”). The hNSCs were cultured on laminin coated plates as recommended by the manufacturer. Both laminin and DEME/F12 were obtained from Millipore. Laminin was diluted with DMEM/F12 to 20 μg/mL. 10 ml of diluted laminin solution was added to 10 cm tissue culture dish. Then the culture dish was incubated in a 37° C., 5% CO2 incubator overnight. Just before use, the laminin solution was aspirated and rinsed once with sterile DPBS solution. hNSCs were cultured in the ReNcell NSC maintenance medium (Millipore) supplied with 20 ng/mL bFGF and 20 ng/mL EGF in a 37° C., 5% CO2 incubator. Medium was exchanged with fresh medium containing bFGF and EGF every other day thereafter. The cells reached 80% confluence 2 to 3 days after this step.
After hNSCs reach 80% confluence, hNSCs were ready for the differentiation experiment. Before seeding, a 96-well plate was freshly coated with 20 μg/mL laminin solution followed by a brief DPBS rinse as described above. Culture medium was removed carefully and hNSCs were dissociated within 3 ml Accutase (Millipore) in a 37° C., 5% CO2 incubator for 3 minutes. Then 5 ml of ReNcell NSC maintenance medium (Millipore) supplied with 20 ng/mL bFGF and 20 ng/mL EGF were added. The cell suspension was then transferred a sterile 15 ml conical tube and the cells were pelleted by the centrifugation at 300×g for 5 minutes. Supernatant was removed. 2 ml medium was then applied to the tube and hNSCs was resuspended thoroughly. The hNSCs were seeded on a 96-well plate at a density of 1×10^4 cell/ml (1000 cells/well, 100 μl/well).
After attaching to the culture surface, the culture medium was switched to serum-free differentiation medium in the presence of cholesterol, or DHA, or no treatment. […]

SMILES: CC(C)CCC[C@@H](C)[C@H]1CC[C@H]2[C@@H]3CC=C4C[C@@H](O)CC[C@]4(C)[C@H]3CC[C@]12C [cholesterol]
- effect to enhance neurogenesis (neuronal morphology displayed by the hADSCs) (hADSCs; 5 μM, among the concentrations tested, phase contrast microscopy at 24, 48 and 96 hours, FIG. 2B): strongest effect to enhance neurogenesis
- neurogenesis compared to the negative control (hADSCs; addition of cholesterol vs no treatment): promoted neurogenesis when compared to the negative control
- morphology of treated hADSCs (outgrowth) (hADSCs; hADSCs treated with cholesterol, FIG. 2B): long outgrowth with some branching
- morphology of hNSCs observed (hNSCs; 25 μM): shrinking cellular bodies, projecting neurities and were developing dendrites
- neurogenesis of hNSCs compared to no treatment (hNSCs; 25 μM, serum-free differentiation medium): dramatically promoted neurogenesis
- length of neurite outgrowth (hNSCs; cholesterol 25 μM compared with DHA at 20 μM): comparable to DHA
